The target in test [1] is T1, Aurora kinase A (Homo sapiens) (UniProt O14965).
T1 sequence (whole entry): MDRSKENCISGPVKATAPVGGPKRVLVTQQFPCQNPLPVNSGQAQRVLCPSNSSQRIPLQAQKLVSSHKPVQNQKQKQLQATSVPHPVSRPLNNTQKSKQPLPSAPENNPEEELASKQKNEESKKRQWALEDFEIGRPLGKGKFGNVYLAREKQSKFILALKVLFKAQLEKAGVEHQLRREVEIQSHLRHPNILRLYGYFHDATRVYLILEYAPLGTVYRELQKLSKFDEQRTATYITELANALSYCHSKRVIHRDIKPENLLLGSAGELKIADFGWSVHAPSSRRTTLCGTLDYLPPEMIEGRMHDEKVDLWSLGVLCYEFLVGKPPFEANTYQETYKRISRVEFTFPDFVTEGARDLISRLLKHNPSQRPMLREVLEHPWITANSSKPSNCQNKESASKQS
In words: Binding affinity to GST-tagged Aurora A after 1 hr by ELISA.

In test [2] the target is T1, Aurora kinase A (Homo sapiens). The experiment in a line: Inhibition of Aurora A at 100 uM by IMAP fluorescence polarization assay. (In fluorescence polarisation assays a small probe gives low polarisation when free and higher when bound to something large.)
Test [3] shares this target. The experiment in a line: Inhibition of Aurora A at 10 uM by IMAP fluorescence polarization assay.

Activity calls are given as the source filed them.

Turning to “H-AELAALEAELAALEGARHFYVQSVGKLAALKAKLAALKA-OH”, in test [1], the outcome was Active. Further, the inhibition (as a rule, the change of the read-out against control, counted positive when it falls) in test [2] is “inactive”.

With “H-AELAALEAELAALEGERRLIIFNSGKLAALKAKLAALKA-OH”, in test [1], the outcome was Active. For the same substance, the inhibition in test [2] came out at 20%.

Turning to “H-AELAALEAELAALEGGGGGGGKLAALKAKLAALKAY-NH2”, in test [1], the result was inactive. Besides, the inhibition entry in test [2] is “inactive”.

With “H-AELAALEAELAALEGQGRADMSILGKLAALKAKLAALKA-OH”, in test [1], the outcome was Active.

In the case of “H-AELAALEAELAALEGQLWMLNTILGKLAALKAKLAALKA-OH”, the outcome in test [1] was Active.

As to “H-AELAALEAELAALEGQVGSTRLLSGKLAALKAKLAALKA-OH”, the result in test [1] was Active.

Take “H-AELAALEAELAALEGRDQVMWFLHGKLAALKAKLAALKA-OH”: the outcome in test [1] was Active.

With “H-AELAALEAELAALEGRRAVWPFGFGKLAALKAKLAALKA-OH”, in test [1], the result was Active.

For “H-AELAALEAELAALEGRRVVVAFAWDKLAALKAKLAALKA-NH2”, the inhibition in test [3] is 42%.

For “H-AELAALEAELAALEGRRVVVSFAWDGKLAALKAKLAALKA-OH”, the outcome in test [1] was Active. This substance also had an inhibition in test [2] of 35%.

With “H-AELAALEAELAALEGRSEDPVCSWGKLAALKAKLAALKA-OH”, in test [1], the outcome was Active.

As for “H-AELAALEAELAALEGSGAWMGSLLGKLAALKAKLAALKA-OH”, in test [1], the outcome was Active.

Regarding “H-AELAALEAELAALEGSGMLAHFSWGKLAALKAKLAALKA-OH”, the outcome in test [1] was Active.

“H-AELAALEAELAALEGSQDNARSLWGKLAALKAKLAALKA-OH”: the outcome in test [1] was Active.

Consider “H-AELAALEAELAALEGSRNQMYWLYGKLAALKAKLAALKA-OH”, for which the result in test [1] was Active.

In the case of “H-AELAALEAELAALEGSRRMWNAYEGKLAALKAKLAALKA-OH”, the result in test [1] was Active.

As to “H-AELAALEAELAALEGSSERKLVLLGKLAALKAKLAALKA-OH”, the result in test [1] was Active. The inhibition in test [2] was 17%.

“H-AELAALEAELAALEGSVAQLGLLLGKLAALKAKLAALKA-OH”: the result in test [1] was Active.

As for “H-AELAALEAELAALEGVGEFSVSLLGKLAALKAKLAALKA-OH”, the outcome in test [1] was Active. In addition, the inhibition result in test [2] is “inactive”.

As to “H-AELAALEAELAALEGWGGLMGWISGKLAALKAKLAALKA-OH”, the outcome in test [1] was Active.

As to “H-AELAALEAELAALEGWLIELLWIVGKLAALKAKLAALKA-OH”, in test [1], the outcome was Active.

On to “H-AELAALEAELAALEGWRRRLNNWWGKLAALKAKLAALKA-OH”, for which the outcome in test [1] was Active.

In the case of “H-AELAALEAELAALEGWVGMREVWRGKLAALKAKLAALKA-OH”, in test [1], the outcome was Active.

Take “H-AELAALEAELAALEGWVQVAQKVRGKLAALKAKLAALKA-OH”: the outcome in test [1] was Active.

As for “H-AELAALEAELAALEGYEGQFMWLIGKLAALKAKLAALKA-OH”, the result in test [1] was Active.

“H-AELAALEAELAAPEGSQERKGVLAGKLAALKAKLAALKA-OH”: in test [1], the outcome was Active.

Take “H-AELAALEAELAPLEGYVSAGSQLWDGKLAALKAKLAALKA-OH”: the outcome in test [1] was Active.

As to H-GRRVVVAFAWD-NH2, in test [2], the inhibition entry was “inactive”.
